# Where a SMILES comes first, the peptide text is derived from it.
# Assays:
# [1] = test system: E. coli; assay: MIC of antibiotic during combined treatment with antimicrobial peptide; format: cell-based, Escherichia coli; settings: for Antibiotic MIC, Erythromycin / Antibiotic MIC, Linezolid / Antibiotic MIC, Vancomycin: E. coli
# Experimental: Thereafter, the MIC value of each mixed solution was determined by diluting the antibiotic solution with the MH medium, adding 50 μl of the diluted solution to each well, and performing an experiment even under a reversed condition.
# [2] = test system: S. aureus; assay: microbe, parasite or virus in culture; format: cell-based, Staphylococcus aureus
# Experimental: (§1) For the antibacterial activity, a minimal inhibitory concentration (MIC) of a peptide in which fungus bodies were not split in an MH medium with sufficient nutrients was measured.
# (§2) Specifically, the strains described in the following [Table 2] were purchased and diluted with an MH medium such that the number of bacteria was 2×10^6 colony-forming units (CFUs), 100 μl of each of the diluted strains was aliquoted into a 96-well microtiter plate, and then 100 μl of a peptide solution diluted with the MH medium (solution diluted stepwise at 2: 1) was added to each well.
# [3] = test system: MRSA 3126; format: cell-based, Staphylococcus aureus; settings: 3126
# Experimental: as §1, §2
# [4] = test system: MRSA 3114; format: cell-based, Staphylococcus aureus; settings: 3114
# Experimental: as §1, §2
# [5] = test system: MDRST 8007; assay: Minimal inhibitory concentration (MIC), single agent; format: cell-based, Salmonella typhimurium; settings: agent alone
# Experimental: as §1, §2
# [6] = test system: MDRAB 12035; assay: MIC of antimicrobial peptide during combined treatment with antibiotic; format: cell-based, Acinetobacter baumannii
# Experimental: (§3) Specifically, the strains described in [Table 2] were prepared and diluted with an MH medium such that the number of bacteria was 2×10^6 colony-forming units (CFUs) per 1 ml, 100 μl of the diluted strains was each aliquoted into a 96-well microtiter plate, and then 50 μl of a peptide solution diluted with the MH medium from the MIC value (solution diluted stepwise at 2: 1) was added to each well. Thereafter, the MIC value of each mixed solution was determined by diluting the antibiotic solution with the MH medium, adding 50 μl of the diluted solution to each well, and performing an experiment even under a reversed condition.
# [7] = test system: S. typhimurium; assay: microbe, parasite or virus in culture; format: cell-based, Salmonella typhimurium
# Experimental: as §1, §2
# [8] = test system: MDREC 1238; format: cell-based, Escherichia coli
# Experimental: as §1, §2
# [9] = test system: MDRST 8009; format: cell-based, Salmonella typhimurium; settings: agent alone
# Experimental: as §1, §2
# [10] = test system: MDRAB 12036; format: cell-based, Acinetobacter baumannii
# Experimental: as §1, §2
# [11] = test system: S. epidermidis; assay: microbe, parasite or virus in culture; format: cell-based, Staphylococcus epidermidis
# In short: (§4)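 MIC read-out = lowest peptide level with no bacterial proliferation. Strains diluted in MH medium to 2×10^6 CFU; peptide twofold serial dilutions in MH added 1:1 in microtiter wells.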
# [12] = test system: MDREC 1229; assay: microbe, parasite or virus in culture; format: cell-based, Escherichia coli
# In short: as §4
# [13] = test system: E. coli; assay: microbe, parasite or virus in culture; format: cell-based, Escherichia coli; settings: 16 h
# In short: as §4
# [14] = test system: MDREC 1229; assay: MIC of antibiotic during combined treatment with antimicrobial peptide; format: cell-based, Escherichia coli
# Experimental: as §3
# [15] = test system: P. aeruginosa; assay: microbe, parasite or virus in culture; format: cell-based, Pseudomonas aeruginosa
# Experimental: as §1, §2
# [16] = peptide treatment concentration 1 μg/ml
# [17] = peptide treatment concentration 2 μg/ml
# [18] = peptide treatment concentration 4 μg/ml
# [19] = peptide treatment concentration 6 μg/ml
# [20] = peptide treatment concentration 8 μg/ml
# [21] = peptide treatment concentration 16 μg/ml
# [22] = peptide treatment concentration 32 μg/ml
# [23] = peptide treatment concentration 64 μg/ml
smiles,measurement,setting,value
"CC[C@H](C)[C@H](NC(=O)[C@H](CCCCN)NC(=O)[C@H](Cc1c[nH]c2ccccc12)NC(=O)[C@@H](N)CCCNC(=N)N)C(=O)N[C@@H](Cc1ccccc1)C(=O)N[C@@H](CCCCN)C(=O)N[C@@H](CCCCN)C(=O)N[C@H](C(=O)N1CCC[C@H]1C(=O)N[C@@H](CCCCN)C(=O)N[C@@H](CC(C)C)C(=O)N[C@@H](CC(C)C)C(=O)N[C@@H](Cc1c[nH]cn1)C(=O)N[C@@H](CCC(=O)O)C(=O)N[C@@H](Cc1ccccc1)C(=O)N[C@@H](CCCCN)C(=O)N[C@@H](CCCCN)C(=O)N[C@@H](Cc1ccccc1)C(N)=O)[C@@H](C)CC [PapMA-12, RWK IFK KIP KLL HEF KKF-NH2] (H-RWKIFKKIPKLLHEFKKF-NH2; N-terminus assumed)",Synergistic effect of antibacterial activity with existing antibiotics compared with PapMA-1,[1]; E. coli and MDREC1229,higher level than the PapMA-1 peptide
same,"Antibiotic MIC, Erythromycin",[1]; erythromycin combined with peptide at 1 μg/ml,64 µg/mL
same,"Antibiotic MIC, Erythromycin",[1]; erythromycin combined with peptide at 2 μg/ml,32 µg/mL
same,"Antibiotic MIC, Erythromycin",[1]; erythromycin combined with peptide at 4 μg/ml,2 µg/mL
same,"Antibiotic MIC, Erythromycin",[1]; erythromycin combined with peptide at 6 μg/ml,1 µg/mL
same,"Antibiotic MIC, Erythromycin",[1]; erythromycin combined with peptide at 8 μg/ml,0 µg/mL
same,"Antibiotic MIC, Erythromycin",[1]; erythromycin combined with peptide at 16 μg/ml,0 µg/mL
same,"Antibiotic MIC, Erythromycin",[1]; erythromycin combined with peptide at 32 μg/ml,0 µg/mL
same,"Antibiotic MIC, Erythromycin",[1]; erythromycin combined with peptide at 64 μg/ml,0 µg/mL
same,"Antibiotic MIC, Linezolid",[1]; linezolid combined with peptide at 1 μg/ml,>128 µg/mL
same,"Antibiotic MIC, Linezolid",[1]; linezolid combined with peptide at 2 μg/ml,128 µg/mL
same,"Antibiotic MIC, Linezolid",[1]; linezolid combined with peptide at 4 μg/ml,8 µg/mL
same,"Antibiotic MIC, Linezolid",[1]; linezolid combined with peptide at 6 μg/ml,2 µg/mL
same,"Antibiotic MIC, Linezolid",[1]; linezolid combined with peptide at 8 μg/ml,0 µg/mL
same,"Antibiotic MIC, Linezolid",[1]; linezolid combined with peptide at 16 μg/ml,0 µg/mL
same,"Antibiotic MIC, Linezolid",[1]; linezolid combined with peptide at 32 μg/ml,0 µg/mL
same,"Antibiotic MIC, Linezolid",[1]; linezolid combined with peptide at 64 μg/ml,0 µg/mL
same,"Antibiotic MIC, Vancomycin",[1]; vancomycin combined with peptide at 1 μg/ml,>128 µg/mL
same,"Antibiotic MIC, Vancomycin",[1]; vancomycin combined with peptide at 2 μg/ml,128 µg/mL
same,"Antibiotic MIC, Vancomycin",[1]; vancomycin combined with peptide at 4 μg/ml,16 µg/mL
same,"Antibiotic MIC, Vancomycin",[1]; vancomycin combined with peptide at 6 μg/ml,8 µg/mL
same,"Antibiotic MIC, Vancomycin",[1]; vancomycin combined with peptide at 8 μg/ml,0 µg/mL
same,"Antibiotic MIC, Vancomycin",[1]; vancomycin combined with peptide at 16 μg/ml,0 µg/mL
same,"Antibiotic MIC, Vancomycin",[1]; vancomycin combined with peptide at 32 μg/ml,0 µg/mL
same,"Antibiotic MIC, Vancomycin",[1]; vancomycin combined with peptide at 64 μg/ml,0 µg/mL
same,Minimal inhibitory concentration MIC,[2],>128 µg/mL
same,Minimal inhibitory concentration MIC,[3],>128 µg/mL
same,Minimal inhibitory concentration MIC,[4],>128 µg/mL
same,Minimal inhibitory concentration MIC,[5],16 µg/mL
same,Peptide MIC during treatment with erythromycin,[6]; erythromycin 4 μg/ml (Conc./MIC 1/8),4 µg/mL
same,Peptide MIC during treatment with erythromycin,[6]; erythromycin 8 μg/ml (Conc./MIC 1/4),2 µg/mL
same,Peptide MIC during treatment with erythromycin,[6]; erythromycin 16 μg/ml (Conc./MIC 1/2),1 µg/mL
same,Peptide MIC during treatment with erythromycin,[6]; erythromycin 32 μg/ml (Conc./MIC 1),0 µg/mL
same,Peptide MIC during treatment with linezolid,[6]; linezolid 64 μg/ml (Conc./MIC 1/8),2 µg/mL
same,Peptide MIC during treatment with linezolid,[6]; linezolid 512 μg/ml (Conc./MIC 1),0 µg/mL
same,Peptide MIC during treatment with linezolid,[6]; linezolid […] (Conc./MIC 1/2),1 µg/mL
same,Peptide MIC during treatment with linezolid,[6]; linezolid […] (Conc./MIC 1/4),1 µg/mL
same,Peptide MIC during treatment with vancomycin,[6]; vancomycin 512 μg/ml (Conc./MIC 1/2),2 µg/mL
same,Peptide MIC during treatment with vancomycin,[6]; vancomycin 1024 μg/ml (Conc./MIC 1),1 µg/mL
same,Peptide MIC during treatment with vancomycin,[6]; vancomycin […] (Conc./MIC 1/4),2 µg/mL
same,Peptide MIC during treatment with vancomycin,[6]; vancomycin […] (Conc./MIC 1/8),2 µg/mL
same,Minimal inhibitory concentration MIC,[7],16 µg/mL
same,Minimal inhibitory concentration MIC,[8],16 µg/mL
same,Minimal inhibitory concentration MIC,[9],32 µg/mL
same,Minimal inhibitory concentration MIC,[10],16 µg/mL
same,Minimal inhibitory concentration MIC,[11],>128 µg/mL
same,Minimal inhibitory concentration MIC,[12],16 µg/mL
same,"Peptide MIC, peptide alone",[12],16 µg/mL
same,Minimal inhibitory concentration MIC,[13],8 µg/mL
same,"Antibiotic MIC, Erythromycin",[14]; [16],128 µg/mL
same,"Antibiotic MIC, Linezolid",[14]; [16],>128 µg/mL
same,"Antibiotic MIC, Vancomycin",[14]; [16],>128 µg/mL
same,"Antibiotic MIC, Erythromycin",[14]; [17],32 µg/mL
same,"Antibiotic MIC, Linezolid",[14]; [17],128 µg/mL
same,"Antibiotic MIC, Vancomycin",[14]; [17],>128 µg/mL
same,"Antibiotic MIC, Erythromycin",[14]; [18],8 µg/mL
same,"Antibiotic MIC, Linezolid",[14]; [18],32 µg/mL
same,"Antibiotic MIC, Vancomycin",[14]; [18],128 µg/mL
same,"Antibiotic MIC, Erythromycin",[14]; [19],4 µg/mL
same,"Antibiotic MIC, Linezolid",[14]; [19],16 µg/mL
same,"Antibiotic MIC, Vancomycin",[14]; [19],32 µg/mL
same,"Antibiotic MIC, Erythromycin",[14]; [20],1 µg/mL
same,"Antibiotic MIC, Linezolid",[14]; [20],16 µg/mL
same,"Antibiotic MIC, Vancomycin",[14]; [20],8 µg/mL
same,"Antibiotic MIC, Erythromycin",[14]; [21],0 µg/mL
same,"Antibiotic MIC, Linezolid",[14]; [21],0 µg/mL
same,"Antibiotic MIC, Vancomycin",[14]; [21],0 µg/mL
same,"Antibiotic MIC, Erythromycin",[14]; [22],0 µg/mL
same,"Antibiotic MIC, Linezolid",[14]; [22],0 µg/mL
same,"Antibiotic MIC, Vancomycin",[14]; [22],0 µg/mL
same,"Antibiotic MIC, Erythromycin",[14]; [23],0 µg/mL
same,"Antibiotic MIC, Linezolid",[14]; [23],0 µg/mL
same,"Antibiotic MIC, Vancomycin",[14]; [23],0 µg/mL
same,Minimal inhibitory concentration MIC,[15],64 µg/mL

# Source: US11214594B2, “Antimicrobial peptide having synergistic antibacterial effect with antibiotics on multidrug resistant bacteria, and use thereof” (priority 2016, dated 2022)
